In assay [1] the target is Leucine-rich repeat serine/threonine-protein kinase 2 (Homo sapiens, UniProt Q5S007). Briefly: LRRK2 Assay. Here is the method:
(§1) LRRK2 kinase activity was measured using Lantha Screen technology from Invitrogen. GST-tagged truncated LRRK2 from Invitrogen (Cat #PV4874) was incubated with a fluorescein-labeled peptide substrate based upon ezrin/radixin/moesin (ERM), also known as LRRKtide (Invitrogen cat #PR8976A), in the presence of a dose response of compound. Upon completion, the assay was stopped and detected with a terbium labeled anti-phospho-ERM antibody (Invitrogen, cat #PR8975A). The assay was carried out under the following protocol: The compound dose response was prepared by diluting compound to a top concentration of 0.3 mM in 100% DMSO and serial diluted by half-log in DMSO to give an 11 point curve, 100× final assay concentration. Using Echo acoustic dispensing, 60 nL of compound was transferred to a low volume Corning 384-well assay plate. 3 μL of a working solution of substrate (200 nM LRRKtide, 2 mM ATP) prepared in assay buffer (50 mM HEPES, pH 7.5, 3 mM MgCl2, with 2 mM DTT and 0.01% Brij35 added fresh) was added to the 60 nL compound assay plate. The kinase reaction was started with 3 μL of a working solution of LRRK2 enzyme at a concentration of 4 μg/mL. The final reaction concentrations were 100 nM LRRKtide, 1 mM ATP, 2 μg/mL LRRK2 enzyme and a compound dose response with a top dose of 3 μM. The reaction was allowed to progress at room temperature for 30 minutes and then stopped with the addition of 6 μL of detection buffer (20 mM Tris pH 7.6, 0.01% NP-40, 6 mM EDTA with 2 nM terbium labeled anti-phospho-ERM). After an incubation of 1 hour at room temperature, the plate was read on an Envision with an excitation wavelength of 340 nm and a reading emission at both 520 nm and 495 nm. The ratio of the 520 nm and 495 nm emission was used to analyze the data. Inhibition of mutant G2019S LRRK2 (Invitrogen cat #PV4881) was measured in the exact same method. All final concentrations of substrate ATP and enzyme were the same.

Assay [2] has as its target Leucine-rich repeat serine/threonine-protein kinase 2 [G2019S] (Homo sapiens, UniProt Q5S007, G2019S). Kind of assay: LRRK2 Assay. Here is the method: as §1

Drawing on BindingDB's records for patent US11161844 (PFIZER INC., 2021), this text covers IC50 for two compounds.

Sequence of Leucine-rich repeat serine/threonine-protein kinase 2 (Q5S007 whole entry, the tested form may be a part): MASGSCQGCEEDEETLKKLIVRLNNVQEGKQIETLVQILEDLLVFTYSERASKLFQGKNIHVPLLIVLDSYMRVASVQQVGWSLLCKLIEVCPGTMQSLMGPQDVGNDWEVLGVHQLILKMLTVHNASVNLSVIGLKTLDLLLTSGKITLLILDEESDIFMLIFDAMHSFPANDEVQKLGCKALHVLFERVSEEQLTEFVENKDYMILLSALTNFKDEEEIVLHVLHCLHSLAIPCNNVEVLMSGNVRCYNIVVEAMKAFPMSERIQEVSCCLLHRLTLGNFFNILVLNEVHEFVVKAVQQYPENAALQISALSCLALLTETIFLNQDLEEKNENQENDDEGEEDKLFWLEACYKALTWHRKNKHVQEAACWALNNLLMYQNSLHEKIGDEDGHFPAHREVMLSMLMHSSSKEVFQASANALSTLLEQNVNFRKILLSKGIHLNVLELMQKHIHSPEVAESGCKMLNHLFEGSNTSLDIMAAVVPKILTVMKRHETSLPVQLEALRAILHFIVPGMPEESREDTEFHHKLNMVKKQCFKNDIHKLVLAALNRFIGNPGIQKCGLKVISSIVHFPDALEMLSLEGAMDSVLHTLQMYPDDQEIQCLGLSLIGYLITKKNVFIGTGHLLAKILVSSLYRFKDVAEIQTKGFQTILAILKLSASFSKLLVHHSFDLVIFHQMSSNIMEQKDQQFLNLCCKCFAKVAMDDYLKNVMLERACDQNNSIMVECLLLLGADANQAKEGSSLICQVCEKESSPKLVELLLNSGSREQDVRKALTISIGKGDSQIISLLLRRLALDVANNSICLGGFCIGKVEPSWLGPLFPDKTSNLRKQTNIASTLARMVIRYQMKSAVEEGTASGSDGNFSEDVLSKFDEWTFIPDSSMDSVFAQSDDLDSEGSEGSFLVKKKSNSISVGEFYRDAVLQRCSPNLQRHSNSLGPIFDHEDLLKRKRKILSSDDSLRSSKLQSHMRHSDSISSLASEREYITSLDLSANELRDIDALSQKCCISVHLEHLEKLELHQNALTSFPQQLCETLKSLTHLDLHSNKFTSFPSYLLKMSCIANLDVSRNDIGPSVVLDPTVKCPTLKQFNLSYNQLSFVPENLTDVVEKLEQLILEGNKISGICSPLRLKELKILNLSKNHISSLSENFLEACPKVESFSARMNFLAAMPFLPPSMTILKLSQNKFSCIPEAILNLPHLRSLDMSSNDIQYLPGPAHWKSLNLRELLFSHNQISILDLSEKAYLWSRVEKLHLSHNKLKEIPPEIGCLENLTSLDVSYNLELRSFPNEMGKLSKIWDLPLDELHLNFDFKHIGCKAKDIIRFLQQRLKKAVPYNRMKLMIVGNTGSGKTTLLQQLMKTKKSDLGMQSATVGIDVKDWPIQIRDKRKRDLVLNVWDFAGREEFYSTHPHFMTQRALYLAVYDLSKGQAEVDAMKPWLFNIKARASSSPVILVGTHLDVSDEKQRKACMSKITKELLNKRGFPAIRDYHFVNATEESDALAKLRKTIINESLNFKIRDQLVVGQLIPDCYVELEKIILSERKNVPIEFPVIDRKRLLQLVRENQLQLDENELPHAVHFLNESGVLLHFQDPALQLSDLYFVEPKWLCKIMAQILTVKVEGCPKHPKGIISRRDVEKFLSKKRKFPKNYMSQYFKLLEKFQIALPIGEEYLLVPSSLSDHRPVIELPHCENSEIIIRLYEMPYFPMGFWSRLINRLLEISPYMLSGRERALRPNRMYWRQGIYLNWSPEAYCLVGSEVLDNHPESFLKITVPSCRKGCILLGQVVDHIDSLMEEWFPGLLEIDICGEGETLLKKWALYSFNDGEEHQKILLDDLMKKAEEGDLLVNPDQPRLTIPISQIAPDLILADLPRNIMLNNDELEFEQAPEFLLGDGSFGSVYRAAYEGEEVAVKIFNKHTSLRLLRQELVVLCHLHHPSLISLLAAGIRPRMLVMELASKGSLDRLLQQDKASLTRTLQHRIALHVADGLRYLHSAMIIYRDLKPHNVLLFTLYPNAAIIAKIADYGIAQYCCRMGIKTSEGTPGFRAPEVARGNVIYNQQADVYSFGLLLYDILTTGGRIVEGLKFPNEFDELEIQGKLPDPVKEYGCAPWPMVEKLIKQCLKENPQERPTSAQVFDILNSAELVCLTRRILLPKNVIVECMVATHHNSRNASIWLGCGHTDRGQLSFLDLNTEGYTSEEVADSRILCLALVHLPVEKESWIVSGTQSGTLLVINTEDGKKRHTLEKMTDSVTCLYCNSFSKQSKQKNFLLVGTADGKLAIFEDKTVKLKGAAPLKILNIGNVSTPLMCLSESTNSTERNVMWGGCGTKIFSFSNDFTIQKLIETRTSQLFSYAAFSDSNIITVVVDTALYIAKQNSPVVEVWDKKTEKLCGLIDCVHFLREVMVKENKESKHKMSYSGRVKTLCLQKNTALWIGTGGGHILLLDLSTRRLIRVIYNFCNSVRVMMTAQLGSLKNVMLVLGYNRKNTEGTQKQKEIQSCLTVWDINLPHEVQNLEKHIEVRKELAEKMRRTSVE
Sequence of Leucine-rich repeat serine/threonine-protein kinase 2 [G2019S] (Q5S007 whole entry G2019S): as the sequence (Q5S007 whole entry, the tested form may be a part) above, with G2019S counted along it

Usually IC50 stands for the point on the concentration scale where inhibition reaches its midpoint. A lower IC50 goes with greater potency in that assay. `C[C@@H]1C[C@H](n2c(C3CCC(F)C3)nc3cnc4ccc(F)cc4c32)CCO1` (single isomer, unassigned) [US11161844, Example 37]: it took 5.68 nM to reach half-maximal inhibition in assay [1] (IC50).
On to `C[C@@H]1CC(n2c(C3CC(C)(F)C3)nc3cnc4ccc(F)cc4c32)CCO1` (stereo partly drawn) [US11161844, Example 31], for which the IC50 in assay [1] amounted to 22 nM; in assay [2] it was 15.8 nM.
